The subject of one series is HBV DNA. The series is described as follows: Antiviral activity: inhibition of HBV DNA in supernatant of HepG 2.2.15 cells (dot blot hybridization). Particulars: Hepatitis B virus, HepG2.2.15, 192 h, 8 days incubation, HB-specific DNA in supernatant, read-out: IC50 (inhibitory effect on HBV DNA). The class given is cell-based. The procedure:
The antiviral effect of the compound of the present invention is determined according to the methods described by Sells, et al (M. A. Sells, M. L. Chen, G. Proc. Natl. Acad. Sci. 1987, 84, 1005-1009) and Korba, et al (B. E. Korba, J. L. Gerin Antiviral Research 1992, 19, 55-70).
(§1) The antiviral test was carried out in a 96-cell microtiter plate. The first column of the plate only contained a culture medium and HepG 2.2.15 cells, as a blank control.
(§2) First, a stock solution ([…]) of a test compound was dissolved in DMSO, and further diluted with a culture medium for growth of HepG 2.2.15 cells. Usually, the compound of the present invention was transferred by suction at a test concentration of 100 μg/ml (the first test concentration) to each cell of the second column of the microtiter plate, and then diluted with the culture medium for growth plus 2% fetal bovine serum (25 μL), by 2 times once, up to 2^10 times at the maximum.
(§3) Then, 225 μL of a suspension of HepG 2.2.15 cells in the culture medium for growth plus 2% fetal bovine serum (5×10^4 cells/ml) was added to each cell of the 96-cell microtiter plate.
(§4) The test mixture was incubated under the conditions of 37° C., 5% CO2 for 4 days. Then, the supernatant was removed by suction, and to each cell 225 μL of a new-prepared culture medium for growth was added. Again, the compound of the present invention was added with a solution of 25 μL. The obtained mixture was further incubated for 4 days.
Thereafter, the supernatant was collected, and sucked in vacuum to a 96-cell dot blot chamber covered by nylon film (used in accordance with the instructions for use provided by the manufacturer).
Determination of Antiviral Activity
After the supernatant was transferred onto the nylon film of the dot blot device (see the contents hereinabove), the supernatant of HepG 2.2.15 cells was denaturated (1.5 M NaCl/0.5 M NaOH), neutralized (3 M NaCl/0.5 M Tris. HCl, pH 7.5) and washed (2×SSC). Then, the filter film was kept at 120° C. for 2-4 hours, whereby DNA was baked on the filter film.
Usually, viral DNA of HepG 2.2.15 cells treated on the nylon film was detected by using a non-radioactive digoxigenin labeled HB-specific DNA probe. Wherein, each time the probe was labeled with digoxigenin, purified and hybridized according to the directions for use given by the manufacturer.
Briefly, pre-hybridization and hybridization were conducted with 5×SSC, 1× blocking agent, 0.1% N-lauroyl sarcosine, 0.02% SDS and 100 μg sperm DNA of black carp. After pre-hybridization at 60° C. for 30 min, a specific hybridization (at 60° C. for 14 hr) was conducted with 20-40 ng/ml digoxigenin labeled denaturalized HBV specific DNA. Then, the film was washed, followed by HBV DNA detection with digoxigenin antibody.
The immunology detection of digoxigenin labeled DNA was conducted according to the directions for use given by the manufacturer.
Briefly speaking, the film was washed and pre-hybridized with a blocking agent (in accordance with the directions for use given by the manufacturer), and then hybridized with an anti-DIG antibody that had been previously coupled onto an alkaline phosphatase for 30 min. After washing, an alkaline phosphatase substrate CSPD was added, and cultured together with the filter for 5 min, and then wrapped in a plastic film, followed by further culturing at 37° C. for 15 min. The filter was exposed to X-ray, and the chemical luminous signal (culturing for 10 min to 2 hr according to the signal strength) of HB-specific DNA on the film was detected, whereby a half inhibitory concentration (IC50) was calculated.
The half inhibitory concentration (IC50) refers to the concentration of the compound of the present invention which reduces the HB-specific band by 50% as compared with the untreated sample.

Another series deals with HepG 2.2.15 cells. The series is described as follows: Cytotoxicity in HepG 2.2.15 cells (cell morphology under microscope after 8 days, Reed&Muench). The class given is cell-based. The conditions noted are these: pathological change of cells after 8 days. The procedure: as §1, §2, §3, §4
Prior to collection of the supernatant for determination of the antiviral effect, the change in cytotoxicity of HepG 2.2.15 cells was investigated by using optical microscopic technique or biochemical detection method (e.g., Alamar Blue staining or Trypan Blue staining).
Determination of Cytotoxicity
The substance-induced change in cytotoxicity in HepG 2.2.15 cells or in inhibition of the cells could be determined by using, e.g., optical microscopic technique, and expressed by the change of cell morphology. Such substance-induced changes, e.g., cell lysis, cavity formation or change in cell morphology, in HepG 2.2.15 cells were apparent as compared to the untreated cells.
Taking the observed pathological change of cells as index, the pathological change of cells was observed under microscope after 8 days, a complete destroy being indicated as 4; 75% being indicated as 3; 50% being indicated as 2; 25% being indicated as 1; and no pathological change being indicated as 0. The average extents of pathological change of cells and the inhibition percentages at various concentrations were calculated. According to Reed&Muench method, a half toxic concentration (TC50) and a maximum non-toxic concentration (TC0) were calculated.
TC50 refers to the concentration of the compound of the present invention when 50% of cells have a similar morphology to the corresponding cells as a control.

Structures are written as SMILES.

As a reminder, the IC50 is the point on the concentration scale where inhibition reaches its midpoint. What is called melting point is the temperature of the solid-liquid transition.

As to `CCOC(=O)C1=C(C)NC(c2cscn2)=NC1c1ccc(F)cc1Cl` (centres unmarked) [Example 1, ethyl 2-(thiazol-4-yl)-4-(2-chloro-4-fluorophenyl)-6-methyl-1,4-dihydro-pyrimidin-5-carboxylate], the melting point fell in the range of 140 to 142 °C. The IC50 with HBV DNA amounted to 3350 nM. The same compound gave a TD50 with HepG 2.2.15 cells of 50.59 µM.
As to `CCOC(=O)C1=C(C)NC(c2csc(C)n2)=NC1c1ccc(O)cc1` (centres unmarked), the melting point lay in the range of 208 to 210 °C.
`CCOC(=O)C1=C(C)NC(c2cscn2)=NC1c1cccc(Cl)c1` (centres unmarked) displayed a melting point of 105 to 108 °C.
Same read-out and setting: for `CCOC(=O)C1=C(C)NC(c2cscn2)=NC1c1cccc(O)c1` (centres unmarked) the value was 180 to 183 °C; for `CCOC(=O)C1=C(C)NC(c2cnc(C)s2)=NC1c1ccc(F)cc1Cl` (centres unmarked), 107 to 111 °C.
Same read-out and setting: for `CCOC(=O)C1=C(C)NC(c2ncc[nH]2)=NC1c1ccc(F)cc1Cl` (centres unmarked) the value was 157 to 162 °C; for `COC(=O)C1=C(C)NC(c2ncsc2Cl)=NC1c1ccc(F)cc1Cl` (centres unmarked), 98 to 100 °C.
Same read-out and setting: the same measure for `CCOC(=O)C1=C(C)NC(c2cscn2)=NC1c1cccc(C)c1` (centres unmarked): 133 to 134 °C.
Take `CCOC(=O)C1=C(C)NC(c2csc(C)n2)=NC1c1ccc(F)cc1Cl` (centres unmarked): the melting point was in the range of 123 to 125 °C.
Still for that read-out and setting: for `COC(=O)C1=C(C)NC(c2cnc(Cl)s2)=NC1c1ccc(F)cc1` (centres unmarked) the value was 175 to 178 °C.
`CCOC(=O)C1=C(C)NC(c2cnc(NC(C)=O)s2)=NC1c1ccc(F)cc1Cl` (centres unmarked) [Example 43, ethyl 2-(2-acetylaminothiazol-5-yl)-4-(2-chloro-4-fluorophenyl)-6-methyl-1,4-dihydro-pyrimidin-5-carboxylate]: the melting point is > 250 °C. For the same compound, in the series on HBV DNA, the IC50 was 2290 nM. The compound further came in with a TD50 in the series on HepG 2.2.15 cells of 76.43 µM.
`CCOC(=O)C1=C(C)N(C(C)=O)C(c2csc(C)n2)=NC1c1ccc(Cl)cc1` (centres unmarked) came in with a melting point of 169 to 171 °C.
The same measure, in the same setting: for `CCOC(=O)C1=C(C)NC(c2cscn2)=NC1c1ccccc1F` (centres unmarked) the value was 126 to 128 °C.
The same measure, in the same setting: for `CCOC(=O)C1=C(C)NC(c2ncc[nH]2)=NC1c1ccccc1Cl` (centres unmarked) the value was 121 to 125 °C.
Regarding `CCOC(=O)C1=C(C)NC(c2csc(Cl)n2)=NC1c1ccc(F)cc1Cl` (centres unmarked) [Example 33, ethyl 2-(2-chlorothiazol-4-yl)-4-(2-chloro-4-fluorophenyl)-6-methyl-1,4-dihydro-pyrimidin-5-carboxylate], the melting point lay within 141 to 143 °C. Besides, the IC50 in the series on HBV DNA turned out to be 870 nM. Besides, the TD50 in the series with HepG 2.2.15 cells worked out at 7.17 µM.
Regarding `CCOC(=O)C1=C(C)NC(c2nccn2Cc2ccccc2)=NC1c1ccc(F)cc1Cl` (centres unmarked), the melting point is 114 to 117 °C.
Same read-out and setting: the same measure for `CCOC(=O)C1=C(C)NC(c2cnc(Cl)s2)=NC1c1ccc(F)cc1Cl` (centres unmarked): 159 to 162 °C.
For `COC(=O)C1=C(C)NC(c2csc(Cl)n2)=NC1c1ccc(F)cc1Cl` (centres unmarked) [Example 34, methyl 2-(2-chlorothiazol-4-yl)-4-(2-chloro-4-fluorophenyl)-6-methyl-1,4-dihydro-pyrimidin-5-carboxylate], the melting point fell in the range of 160 to 162 °C. In addition, in the series on HBV DNA, the IC50 is 2080 nM. This compound showed a TD50 with HepG 2.2.15 cells of 12.35 µM.
The compound `CCOC(=O)C1=C(C)NC(c2cscn2)=NC1c1cccc(OC)c1` (centres unmarked) registered a melting point of 140 to 142 °C.
Still for that read-out and setting: the same measure for `CCOC(=O)C1=C(C)NC(c2ncsc2Cl)=NC1c1ccc(F)cc1Cl` (centres unmarked): 149 to 152 °C.
`COC(=O)C1=C(C)NC(c2scnc2C)=NC1c1ccc(F)cc1Cl` (centres unmarked) [Example 37, methyl 2-(4-methylthiazol-5-yl)-4-(2-chloro-4-fluorophenyl)-6-methyl-1,4-dihydro-pyrimidin-5-carboxylate]: the melting point was 145 to 147 °C. Besides, in the series with HBV DNA, the IC50 worked out at 14600 nM. Also, the TD50 in the series with HepG 2.2.15 cells worked out at 101.42 µM.
As to `CCOC(=O)C1=C(C)NC(c2nccn2C)=NC1c1ccccc1Cl` (centres unmarked), the melting point fell in the range of 124 to 127 °C.
Same read-out and setting: for `CCOC(=O)C1=C(C)NC(c2csc(C)n2)=NC1c1cccc(Cl)c1` (centres unmarked) the value was 143 to 144 °C; for `COC(=O)C1=C(C)NC(c2cnc(Cl)s2)=NC1c1ccc(F)cc1Cl` (centres unmarked), > 230 °C; for `CCOC(=O)C1=C(C)N(C(C)=O)C(c2csc(C)n2)=NC1c1cccc(OC)c1` (centres unmarked), 114 to 116 °C.
On the same count and under the same terms, the same measure for `CCOC(=O)C1=C(C)N(C(C)=O)C(c2csc(C)n2)=NC1c1cccc(F)c1` (centres unmarked): 127 to 130 °C.
`CCOC(=O)C1=C(C)NC(c2cscn2)=NC1c1cccc(F)c1` (centres unmarked) yielded a melting point of 118 to 120 °C.
On the same count and under the same terms, for `CCOC(=O)C1=C(C)N(C(C)=O)C(c2csc(C)n2)=NC1c1ccc(F)cc1` (centres unmarked) the value was 140 to 142 °C.
`CCOC(=O)C1=C(C)NC(c2c(F)cc(F)cc2F)=N[C@H]1c1ccc(F)cc1Cl` [Example 62, ethyl 4-R-(2-chloro-4-fluorophenyl)-2-(2,4,6-trifluorophenyl)-6-methyl-1,4-dihydro-pyrimidin-5-carboxylate]: in the series with HBV DNA, the IC50 was 2010 nM. The compound further yielded a TD50 in the series on HepG 2.2.15 cells of 117.23 µM.
`CCOC(=O)C1=C(C)N(C(C)=O)C(c2csc(C)n2)=NC1c1cccc(C)c1` (centres unmarked) displayed a melting point of 113 to 114 °C.
Still for that read-out and setting: the same measure for `CCOC(=O)C1=C(C)N(C(C)=O)C(c2cscn2)=NC1c1cccc(OC)c1` (centres unmarked): 130 to 131 °C; for `CCOC(=O)C1=C(C)N(C(C)=O)C(c2csc(C)n2)=NC1c1ccccc1` (centres unmarked): 140 to 142 °C.
On to `COC(=O)C1=C(C)NC(c2ncsc2Cl)=NC1c1ccc(F)cc1` (centres unmarked), for which the melting point was in the range of 118 to 122 °C.
Turning to `CCOC(=O)C1=C(C)N(C(C)=O)C(c2csc(C)n2)=NC1c1ccc(C)cc1` (centres unmarked), the melting point lay within 187 to 188 °C.
`CCOC(=O)C1=C(C)NC(c2csc(N)n2)=NC1c1ccc(F)cc1Cl` (centres unmarked) yielded a melting point of 95 to 110 °C.
On the same count and under the same terms, for `CCOC(=O)C1=C(C)NC(c2csc(C)n2)=NC1c1cccc(O)c1` (centres unmarked) the value was 175 to 178 °C.
`COC(=O)C1=C(C)NC(c2csc(C)n2)=NC1c1ccc(F)cc1Cl` (centres unmarked) [Example 29, methyl 2-(2-methylthiazol-4-yl)-4-(2-chloro-4-fluorophenyl)-6-methyl-1,4-dihydro-pyrimidin-5-carboxylate]: the IC50 with HBV DNA turned out to be 8420 nM. In the series on HepG 2.2.15 cells, this compound registered a TD50 of 56.34 µM.
The compound `CCOC(=O)C1=C(C)N(C(C)=O)C(c2csc(C)n2)=NC1c1ccc(OC)cc1` (centres unmarked) came in with a melting point of 138 to 140 °C.
The same measure, in the same setting: the same measure for `CCOC(=O)C1=C(C)NC(c2cscn2)=NC1c1ccc(O)cc1` (centres unmarked): 213 to 216 °C; for `CCOC(=O)C1=C(C)NC(c2cscn2)=NC1c1ccc(F)cc1` (centres unmarked): 118 to 120 °C; for `CC1=C(C(=O)OC(C)C)C(c2ccc(F)cc2Cl)N=C(c2c(F)cccc2F)N1` (centres unmarked): 155 to 158 °C.

The values above are taken from patent US8168642B2, “Dihydropyrimidine compounds and their uses in preparation of medicaments for treating and preventing antiviral diseases” (Beijing Molecule Science and Technology Co., Ltd., priority 2006, dated 2012).
